One assay concerns HeLa cells. Nature of the assay: Cellular uptake and intracellular distribution of rhodamine B-labeled peptoids by live-cell confocal imaging. In kind it is cell-based, human. The following applies: 1 × 10^4 HeLa wt cells, 1 µM peptoid, 24 h, 37 °C, confocal fluorescence imaging, co-staining Hoechst 33342 and Mitotracker Green. The protocol: All procedures with mammalian cells were carried out under sterile conditions. 1 × 10^4 HeLa (human cervix carcinoma) cells were plated into each well of a 8-well µslide from IBIDI (Ibitreat, Martinsried, Germany) and cultured in 200 µL Dulbecco’s modified Eagle’s medium, high glucose, (DMEM, Invitrogen, Karlsruhe, Germany) supplemented with 10% fetal calf serum (FCS, PAA) and1 U/mL penicillin/streptomycin at 37 °C, 5% CO2.
The purified peptoids were dissolved in bidistilled water to yield a 2 mM stock solution and were further diluted with 10% DMEM to yield the respective incubation media. The cells were cultured as described above were incubated with the different peptoids at final concentrations of 1–10 µM. Cellular uptake of the peptoids was measured by live-cell imaging after 1 and 24 h as fixation would alter the intracellular distribution as described for other polycationic species.
Visualization of the peptoids was achieved by confocal microscopy using a Leica TCS-SP5 II, equipped with a DMI6000 microscope. The peptoids were excited at 561 nm using a DPSS laser. […] Fluorescence emission was measured at 417–468 nm for the detection of the nuclei, at 499–552 nm for the detection of the mitochondria, and 593–696 nm for the detection of the rhodamine B labeled peptoids. […]

Assay [1] concerns mitochondria of HeLa cells. Description: Co-localization with the mitochondrial marker Mitotracker Green (Pearson's correlation of fluorescence profiles). The assay is classed as cell-based, human. The following applies: live-cell confocal fluorescence imaging, co-staining with 100 nM Mitotracker Green, 37 °C.
Protocol: HeLa cells were treated with 1 and 10 µM of the corresponding peptoids for 1 and 24 h. […] However, for the better visualization of the organellar accumulation the incubation period was prolonged to 24 h. Co-localization experiments were performed by co-staining of the mitochondria with the mitochondrial marker Mitotracker Green^TM (Figure 5 and Figure 6).
By colocalizing the peptides with the mitochondrial marker Mitotracker Green^TM Pearson’s correlation coefficients (Rr) of the corresponding fluorescence profiles could be calculated reflecting mitochondrial specificity.
All procedures with mammalian cells were carried out under sterile conditions. […]
The purified peptoids were dissolved in bidistilled water to yield a 2 mM stock solution and were further diluted with 10% DMEM to yield the respective incubation media. […] Cellular uptake of the peptoids was measured by live-cell imaging after 1 and 24 h as fixation would alter the intracellular distribution as described for other polycationic species.
Visualization of the peptoids was achieved by confocal microscopy using a Leica TCS-SP5 II, equipped with a DMI6000 microscope. […] Fluorescence emission was measured at 417–468 nm for the detection of the nuclei, at 499–552 nm for the detection of the mitochondria, and 593–696 nm for the detection of the rhodamine B labeled peptoids. […]

As for RhoB-Npmb-Nlys3-NH2 [compound 11], in the assay on HeLa cells, the Intracellular localization entry is on record as “mitochondrial localization”. Also, in assay [1], the “Pearson's correlation coefficient (Rr) of the fluorescence profiles of peptoid and Mitotracker Green, reflecting mitochondrial specificity” value is recorded as “+0.68”.
